Values of other authors in patent US8916150B2 (priority 2009, dated 2014).

Tests used:
[1] = in vivo
LC of BoNT-A = LC of BoNT-A (Clostridium botulinum, UniProt P0DPI1)
[2] = tested on: botulinum toxin light chain (LC)

Chain of LC of BoNT-A (P0DPI1 2-448 limits assumed): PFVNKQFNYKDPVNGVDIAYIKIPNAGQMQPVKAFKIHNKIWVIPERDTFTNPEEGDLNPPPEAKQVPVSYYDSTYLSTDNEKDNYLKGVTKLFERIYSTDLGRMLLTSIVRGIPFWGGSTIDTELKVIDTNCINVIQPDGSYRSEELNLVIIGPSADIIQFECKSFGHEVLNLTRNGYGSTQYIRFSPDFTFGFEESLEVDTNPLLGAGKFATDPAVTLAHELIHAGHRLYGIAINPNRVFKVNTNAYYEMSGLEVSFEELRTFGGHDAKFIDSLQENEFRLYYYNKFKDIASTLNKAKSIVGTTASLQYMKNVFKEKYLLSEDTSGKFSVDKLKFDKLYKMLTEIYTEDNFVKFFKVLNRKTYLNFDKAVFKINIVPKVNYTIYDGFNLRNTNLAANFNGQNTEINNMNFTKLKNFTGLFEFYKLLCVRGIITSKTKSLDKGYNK

Structure (SMILES): CC(=O)[O-].CC(=O)[O-].[Zn+2] [zinc acetate]
- nausea and vomiting after single dose [1]: induces nausea and vomiting

Structure (SMILES): [Cl-].[Cl-].[Zn+2] [zinc chloride]
- effect on autocatalytic fragmentation of LC (LC of BoNT-A): enhanced

Structure (SMILES): O=C(O)CN(CCN(CC(=O)O)CC(=O)O)CC(=O)O [EDTA, ethylenediaminetetraacetate]
- effect on LC enzymatic activity on removal of Zn2+ [2]: completely abolishes enzymatic activity
